Assay results reported in patent US11110082B2, “Tyrosine kinase inhibitors” (Rigel Pharmaceuticals, Inc., priority 2016, dated 2021).
pEC50: −log10 of the molar value.

Molecular target: T1, MerTK (Homo sapiens, UniProt Q12866)
T1 construct: Seed HUVECs (10K cells/well) in EBM-2 complete media; host or cells: HUVEC (primary human umbilical vein endothelial cells)
T1 sequence (Q12866 21-999): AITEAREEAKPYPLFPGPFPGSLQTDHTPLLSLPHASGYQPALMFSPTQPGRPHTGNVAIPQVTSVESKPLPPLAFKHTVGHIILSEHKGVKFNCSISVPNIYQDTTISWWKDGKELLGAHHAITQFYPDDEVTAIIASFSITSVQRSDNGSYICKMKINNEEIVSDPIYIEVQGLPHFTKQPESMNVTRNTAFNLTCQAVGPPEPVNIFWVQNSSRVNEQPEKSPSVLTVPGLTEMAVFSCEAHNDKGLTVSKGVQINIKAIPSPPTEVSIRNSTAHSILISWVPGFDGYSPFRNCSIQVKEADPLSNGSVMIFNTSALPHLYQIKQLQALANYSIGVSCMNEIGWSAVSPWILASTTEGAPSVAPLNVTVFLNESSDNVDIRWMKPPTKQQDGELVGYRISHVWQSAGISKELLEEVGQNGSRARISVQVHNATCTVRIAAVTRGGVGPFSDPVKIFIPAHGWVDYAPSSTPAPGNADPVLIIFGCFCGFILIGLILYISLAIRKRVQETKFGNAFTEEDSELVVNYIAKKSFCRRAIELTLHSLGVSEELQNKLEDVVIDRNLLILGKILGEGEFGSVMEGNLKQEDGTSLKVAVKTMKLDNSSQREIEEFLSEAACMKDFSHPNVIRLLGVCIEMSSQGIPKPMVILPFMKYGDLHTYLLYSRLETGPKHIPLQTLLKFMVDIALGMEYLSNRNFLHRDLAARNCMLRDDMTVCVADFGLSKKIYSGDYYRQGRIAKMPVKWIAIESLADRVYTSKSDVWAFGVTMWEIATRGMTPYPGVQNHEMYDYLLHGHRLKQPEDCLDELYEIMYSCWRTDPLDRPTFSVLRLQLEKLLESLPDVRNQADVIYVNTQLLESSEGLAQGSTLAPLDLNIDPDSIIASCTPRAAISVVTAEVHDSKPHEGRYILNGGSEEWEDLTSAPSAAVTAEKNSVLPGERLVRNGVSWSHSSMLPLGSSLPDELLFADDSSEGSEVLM
Assay: PAKT HTRF-HUVEC assay (pAkt Ser473 HTRF after anti-human MerTK-XL stimulation)
Format: cell-based
Details: HUVEC cells, 1 hour compound, stimulated with anti-human MerTK-XL 1 ug/mL for 10 minutes, read-out: inhibition of MerTK
Outline: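 HUVECs starved 3-4 h in basal medium, preincubated with compound 1 h at 37° C, then stimulated 10 min with cross-linked anti-human MerTK antibody (final 1 ug/mL). Lysates read for pAkt (Ser473) by HTRF; EC50 from curve fitting.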

SMILES	pEC50
O=c1c2cc(CN3CCN(C4COC4)CC3)ccc2c2cnc(NCC3CC3)nc2n1[C@H]1CC[C@H](O)CC1 [Compound 147]	7.33
CC1(O)CCC(n2c(=O)c3cc(CN4CCN(C5COC5)CC4)ccc3c3cnc(NCC4CC4)nc32)CC1 (stereo not drawn) [Compound 148]	7.77
O=c1c2cc(CN3CCC(N4CCCC4)CC3)ccc2c2cnc(NCC3CC3)nc2n1[C@H]1CC[C@H](O)CC1 [Compound 149]	7.27
CC1(O)CCC(n2c(=O)c3cc(CN4CCC(N5CCCC5)CC4)ccc3c3cnc(NCC4CC4)nc32)CC1 (stereo not drawn) [Compound 150]	7.48
O=c1c2cc(CN3CCn4ncnc4C3)ccc2c2cnc(NCC3CC3)nc2n1[C@H]1CC[C@H](O)CC1 [Compound 151]	7.19
O=c1c2cc(CN3CCN(CC(F)(F)F)CC3)ccc2c2cnc(NCC3CC3)nc2n1[C@H]1CC[C@H](O)CC1 [Compound 152]	7.29
O=c1c2cc(CN3CCN(CC(F)F)CC3)ccc2c2cnc(NCC3CC3)nc2n1[C@H]1CC[C@H](O)CC1 [Compound 153]	7.29
CCCCNc1ncc2c3ccc(CN4CCNCC4)cc3c(=O)n([C@H]3CC[C@H](O)CC3)c2n1 [Compound 154]	7.18
O=c1c2cc(CN3CCOCC3)ccc2c2cnc(NCC3CC3)nc2n1[C@H]1CC[C@H](O)CC1 [Compound 155]	6.83
CC1(O)CCC(n2c(=O)c3cc(CN4CCOCC4)ccc3c3cnc(NCC4CC4)nc32)CC1 (stereo not drawn) [Compound 156]	6.93
O=c1c2cc(CN3CCN4CCC[C@H]4C3)ccc2c2cnc(NCC3CC3)nc2n1[C@H]1CC[C@H](O)CC1 [Compound 157]	7.30
O=c1c2cc(N3CCC(N4CCCC4)CC3)ccc2c2cnc(NCC3CC3)nc2n1[C@H]1CC[C@H](O)CC1 [Compound 158]	7.02
O=c1c2cc(CN3CCN4CCC[C@@H]4C3)ccc2c2cnc(NCC3CC3)nc2n1[C@H]1CC[C@H](O)CC1 [Compound 159]	7.31
O=c1c2cc(CN3CCS(=O)(=O)CC3)ccc2c2cnc(NCC3CC3)nc2n1[C@H]1CC[C@H](O)CC1 [Compound 160]	6.66
CCOC(=O)C1CCN(Cc2ccc3c(c2)c(=O)n(C2CCC(O)CC2)c2nc(NCC4CC4)ncc32)CC1 (stereo not drawn) [Compound 161]	7.59
O=c1c2cc(CN3CC[N+]4([O-])CCC3CC4)ccc2c2cnc(NCC3CC3)nc2n1[C@H]1CC[C@H](O)CC1 [Compound 162]	4.92
O=c1c2cc(N3CCN4CCC3CC4)ccc2c2cnc(NCC3CC3)nc2n1C1CCC(O)CC1 (stereo not drawn) [Compound 163]	6.95
O=c1c2cc(N3CCn4ncnc4C3)ccc2c2cnc(NCC3CC3)nc2n1[C@H]1CC[C@H](O)CC1 [Compound 164]	6.53
O=c1c2cc(CN3CC[S+]([O-])CC3)ccc2c2cnc(NCC3CC3)nc2n1[C@H]1CC[C@H](O)CC1 [Compound 165]	6.40
O=c1c2cc(N3CCN(CC(F)(F)F)CC3)ccc2c2cnc(NCC3CC3)nc2n1[C@H]1CC[C@H](O)CC1 [Compound 168]	6.54
O=c1c2cc(N3CCN(CC(F)F)CC3)ccc2c2cnc(NCC3CC3)nc2n1[C@H]1CC[C@H](O)CC1 [Compound 169]	6.45
O=c1c2cc(CN3CCSCC3)ccc2c2cnc(NCC3CC3)nc2n1[C@H]1CC[C@H](O)CC1 [Compound 170]	7.44
O=c1c2cc(CN3CCNCC3)ccc2c2cnc(NCC3CC3)nc2n1[C@H]1CC[C@H](O)CC1 [Compound 171]	6.51

SMILES	pEC50
O=c1c2cc(N3CCNCC3)ccc2c2cnc(NCC3CC3)nc2n1[C@H]1CC[C@H](O)CC1 [Compound 174]	6.77
C[C@@H]1CN(Cc2ccc3c(c2)c(=O)n([C@H]2CC[C@H](O)CC2)c2nc(NCC4CC4)ncc32)CCN1C [Compound 175]	7.44
CC(C)N1CCN(c2ccc3c(c2)c(=O)n([C@H]2CC[C@H](O)CC2)c2nc(NCC4CC4)ncc32)CC1 [Compound 176]	7.01
O=c1c2cc(N3CCN(C4CC4)CC3)ccc2c2cnc(NCC3CC3)nc2n1[C@H]1CC[C@H](O)CC1 [Compound 177]	6.32
O=c1c2cc(N3CCN(C4COC4)CC3)ccc2c2cnc(NCC3CC3)nc2n1[C@H]1CC[C@H](O)CC1 [Compound 178]	6.42
O=c1c2cc(CN3CCN4CCC3CC4)ccc2c2cnc(NCC3CC3)nc2n1[C@H]1CC[C@H](O)CC1 [Compound 179]	6.94
CN1CCN(Cc2ccc3c(c2)c(=O)n([C@H]2CC[C@H](OC(N)=O)CC2)c2nc(NCC4CC4)ncc32)CC1 [Compound 181]	6.53
CC(C)(C)N1CCN(Cc2ccc3c(c2)c(=O)n([C@H]2CC[C@H](O)CC2)c2nc(NCC4CC4)ncc32)CC1 [Compound 182]	8.12
CN1CCN(Cc2ccc3c(c2)c(=O)n([C@H]2CC[C@H](OC(N)=O)CC2)c2nc(N(CC4CC4)C(N)=O)ncc32)CC1 [Compound 183]	4.86
CN1CCN(Cc2ccc3c(c2)c(=O)n([C@H]2CC[C@H](NC(=O)OC(C)(C)C)CC2)c2nc(NCC4CC4)ncc32)CC1 [Compound 184, trans-tert-Butyl (4-(3-((cyclopropylmethyl)amino)-8-((4-methylpiperazin-1-yl)methyl)-6-oxopyrimido[4,5-c]isoquinolin-5(6H)-yl)cyclohexyl)carbamate]	5.29
CN1CCN(Cc2ccc3c(c2)c(=O)n([C@H]2CC[C@H](N)CC2)c2nc(NCC4CC4)ncc32)CC1 [Compound 185, trans-5-(4-aminocyclohexyl)-3-((cyclopropylmethyl)amino)-8-((4-methylpiperazin-1-yl)methyl)pyrimido[4,5-c]isoquinolin-6(5H)-one]	7.54
O=c1c2cc(CN3CCC4(CC3)COC4)ccc2c2cnc(NCC3CC3)nc2n1[C@H]1CC[C@H](O)CC1 [Compound 186, trans-8-((2-Oxa-7-azaspiro[3.5]nonan-7-yl)methyl)-3-((cyclopropylmethyl)amino)-5-(4-hydroxycyclohexyl)pyrimido[4,5-c]isoquinolin-6(5H)-one]	7.34
CN1CCN(Cc2ccc3c(c2)c(=O)n(C2CCN(C(=O)OC(C)(C)C)CC2)c2nc(NCC4CC4)ncc32)CC1 [Compound 188]	4.95
CN1CCC(Nc2ccc3c(c2)c(=O)n([C@H]2CC[C@H](O)CC2)c2nc(NCC4CC4)ncc32)CC1 [Compound 189, trans-3-((Cyclopropylmethyl)amino)-5-(4-hydroxycyclohexyl)-8-((1-methylpiperidin-4-yl)amino)pyrimido[4,5-c]isoquinolin-6(5H)-one]	7.12
CN1CCN(Cc2ccc3c(c2)c(=O)n([C@H]2CC[C@H](NC(=O)CC#N)CC2)c2nc(NCC4CC4)ncc32)CC1 [Compound 190, trans-2-Cyano-N-(4-(3-((cyclopropylmethyl)amino)-8-((4-methylpiperazin-1-yl)methyl)-6-oxopyrimido[4,5-c]isoquinolin-5(6H)-yl)cyclohexyl)acetamide]	7.14
CN1CCN(Cc2ccc3c(c2)c(=O)n(C2CCNCC2)c2nc(NCC4CC4)ncc32)CC1 [Compound 191]	6.06
CN1CCN(Cc2ccc3c(c2)c(=O)n(C2CCN(C(=O)CC#N)CC2)c2nc(NCC4CC4)ncc32)CC1 [Compound 192]	5.39
CC(C)Nc1ncc2c3ccc(Cl)cc3c(=O)n([C@H]3CC[C@H](O)CC3)c2n1 [Compound 193]	6.02
O=c1c2cc(CN3CCN(c4ccncc4)CC3)ccc2c2cnc(NCC3CC3)nc2n1[C@H]1CC[C@H](O)CC1 [Compound 194]	7.47
CC(C)Nc1ncc2c3ccc(CN4CCN(C)CC4)cc3c(=O)n([C@H]3CC[C@H](O)CC3)c2n1 [Compound 195, trans-5-(4-Hydroxycyclohexyl)-3-(isopropylamino)-8-((4-methylpiperazin-1-yl)methyl)pyrimido[4,5-c]isoquinolin-6(5H)-one]	7.14
CN1CCN(Cc2ccc3c(c2)c(=O)n([C@H]2CC[C@H](O)CC2)c2nc(NC4CC4)ncc32)CC1 [Compound 196, trans-3-(Cyclopropylamino)-5-(4-hydroxycyclohexyl)-8-((4-methylpiperazin-1-yl)methyl)pyrimido[4,5-c]isoquinolin-6(5H)-one]	6.62
CCC(F)(F)CNc1ncc2c3ccc(CN4CCC5(CC4)COC5)cc3c(=O)n([C@H]3CC[C@H](O)CC3)c2n1 [Compound 197, trans-8-((2-Oxa-7-azaspiro[3.5]nonan-7-yl)methyl)-3-((2,2-difluorobutyl)amino)-5-(4-hydroxycyclohexyl)pyrimido[4,5-c]isoquinolin-6(5H)-one]	7.01
